Reference: US6916472B2, “PON3 and uses thereof” (Regents of the University of Michigan, priority 2000, dated 2005)

Experiments:
rabbit serum PON3 = target: T1, rabbit serum PON3 (Oryctolagus cuniculus, UniProt Q9BGN0); assay: Hydrolytic activity of purified rabbit serum PON3 with paraoxon, aromatic esters and lactones; format: biochemical; conditions: for PON3 (rate of hydrolysis of substrate) / PON3 hydrolytic activity with substrate (in words): purified rabbit serum PON3; for PON3 (rate of hydrolysis of substrate): 25° C.; for PON1/PON3 Ratio: ratio of hydrolysis rates of PON1 and PON3
T1 construct: from tissue; host or cells: rabbit serum
Description: (§1) Esterase activities with substrates: phenyl acetate, S-phenyl thioacetate, α-naphtyl acetate and paraoxon were measured as described by Kuo and La Du (Kuo and La Du, Drug Metab. Dispos., 23:335 [1995]; Qan et al., Drug Metab Dispos, 19:100-106 [1991]. For example, arylesterase activity is measured using a molar difference extinction coefficient (difference in extinction coefficients of phenol vs. phenol acetate) of 1,310 M^−1 cm^−1, at 270 nm with 1.0 mM phenyl acetate in 50 mM Tris/HCl (pH 8.0):1.0 mM CaCl2 buffer (Gan et al., supra). For the hydrolysis of thiophenyl acetate, the substrate is dissolved in methanol, and the reaction cuvettes contain 1.0 mM substrate in 50 mM Tris/HCl (pH 8.0):1.0 mM CaCl2 buffer. The product, thiophenol, reacts with 5,5′-dithiobis(2-nitrobenzoic acid), and activity is calculated from a molar difference extinction coefficient of 13,600 M^−1 cm^−1 at 412 nm (Augustinsson and Axenfors, Anal. Biochem., 48:428 [1972]). For the hydrolysis of α-naphtyl acetate, substrates are dissolved in ethylene glycol monomethyl ether, and the reaction cuvettes contain 0.5 mM substrate in 50 mM Tris/HCl (pH 8.0):1.0 mM CaCl2 buffer. Enzymatic activities are calculated from the molar extinction coefficients of 23,170 M^−1 cm^−1 at 235 nm. PON activity is measured with 1.0 mM paraoxon in 50 mM glycine:NaOH buffer (pH 10.5):1.0 mM CaCl2 with or without 1.0 M NaCl. Enzymatic activities were calculated from a molar extinction coefficient of 18,290 M^−1 cm^−1 at 412 nm (Gan et al., supra). All enzymatic assays are performed at 25° C. For each assay, 5 μl of purified PON (1.5-2.5 μg of enzyme protein) is added to an assay cuvette. For all substrates, one unit of enzymatic activity is defined as 1 μmol of substrate hydrolyzed/min.
(§2) Hydrolysis of aromatic lactones was monitored by the increase in UV absorbance at 270 nm (dihydrocoumarin), 274 nm (2-coumaranone), and 290 nm (homogentisic acid lactone). Lactones were purchased from Sigma. In a typical experiment a cuvette contained 1 mM substrate (from a […] stock solution, dissolved in methanol) in 50 mM Tris/HCl (pH 8.0), 1 mM CaCl2 and 5-20 μl enzyme source in a total volume of 1 ml. The molar difference extinction coefficients (difference in extinction coefficients of substrate and product) used to calculate the rate of hydrolysis were 1295, 876, and 816 M^−1 cm^−1 for dihydrocoumarin, 2-coumaranone and homogentisic acid lactone, respectively.
(§3) The hydrolysis of other lactones was followed by a calorimetric assay with phenol red (Billecke, et al., Chem Biol Interact, 119-120:251-256, [1999]). The reaction cuvette contained 1 mM substrate (from a 100 mM stock solution, dissolved in methanol) in 2 mM HEPES at starting pH 8.0, 1 mM CaCl2, 0.004% (106 μM) phenol red, 0.005% bovine albumin, and 5-20 μl enzyme solution in a total volume of 1 ml. The rate of acid production was followed by monitoring the increase in absorbance at 422 nm as the color changed from red to yellow. The rate of hydrolysis was derived from a calibration curve obtained using known amounts of HCl.
(§4) All the above assays (Sections, A, B, and C) were performed at 25° C. using a dual beam Cary 3E […] Spectrophotometer (Varian). Reference cuvettes containing the appropriate buffer plus substrate were used in each assay to correct for any spontaneous hydrolysis.

rabbit serum PON1 = target: T2, rabbit serum PON1 (Oryctolagus cuniculus, UniProt P27170); assay: Hydrolytic activity of purified rabbit serum PON1 with paraoxon, aromatic esters and lactones; format: biochemical; conditions: 25° C.
T2 construct: PON 1 was purified further by pooling the fractions with highest arylesterase activity from a second DEAE column; from tissue; host or cells: rabbit serum
Description: as §1, §2, §3, §4

PON3 = target: T3, PON3 (Oryctolagus cuniculus, UniProt Q9BGN0); assay: Hydrolysis of statin lactones by PON3; format: biochemical, rabbit
T3 construct: from tissue; host or cells: rabbit serum
Description: The hydrolysis of the statin lactones (mevastatin, lovastatin and simvastatin) was analyzed by high performance liquid chromatography (HPLC) using a Beckman System Gold HPLC with a Model 126 Programmable Solvent Module, a Model 168 Diode Array Detector set at 238 nm, a Model 7125 Rheodyne manual injector valve with a 20 μl loop, and a Beckman ODS Ultrasphere column (C 18, 250×4.6 mm, 5 μm). Lovastatin (Mevacor) and simvastatin were purchased as 20 mg tablets from Merck, from which the lactones were extracted with chloroform, evaporated to dryness and redissolved in methanol. Mevastatin was purchased from Sigma.
In a final volume of 1 ml, 10-200 μl of enzyme solution and 10 μl of substrate solution in methanol (0.5 mg/ml) were incubated at 25° C. in 50 mM Tris/HCl (pH 7.6), 1 mM CaCl2. […]
Samples were eluted isocratically at a flow rate of 1.0 ml/min with a mobile phase consisting of the following: A=acetic acid/acetonitrile/water (2:249:249, v/v/v) and B=acetonitrile, in A/B ratios of 50/50, 45/55 and 40/60 for mevastatin, lovastatin and simvastatin, respectively. […] Response factors for the acid products were calculated from the peak heights after complete alkaline hydrolysis of the lactones in 0.02 M NAOH for 2-24 hours at 25° C.

T2 sequence (P27170 whole entry Y185T): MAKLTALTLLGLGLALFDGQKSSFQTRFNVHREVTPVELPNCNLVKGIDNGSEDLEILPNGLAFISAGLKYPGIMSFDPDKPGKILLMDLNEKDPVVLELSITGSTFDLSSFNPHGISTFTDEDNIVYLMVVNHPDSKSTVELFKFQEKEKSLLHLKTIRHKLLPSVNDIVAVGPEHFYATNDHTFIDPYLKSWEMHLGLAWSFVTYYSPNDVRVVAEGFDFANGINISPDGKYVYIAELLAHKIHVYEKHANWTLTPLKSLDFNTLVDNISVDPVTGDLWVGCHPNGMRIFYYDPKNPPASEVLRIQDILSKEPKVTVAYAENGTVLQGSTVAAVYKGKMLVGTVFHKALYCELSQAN
T1 sequence (Q9BGN0 2-354 limits assumed): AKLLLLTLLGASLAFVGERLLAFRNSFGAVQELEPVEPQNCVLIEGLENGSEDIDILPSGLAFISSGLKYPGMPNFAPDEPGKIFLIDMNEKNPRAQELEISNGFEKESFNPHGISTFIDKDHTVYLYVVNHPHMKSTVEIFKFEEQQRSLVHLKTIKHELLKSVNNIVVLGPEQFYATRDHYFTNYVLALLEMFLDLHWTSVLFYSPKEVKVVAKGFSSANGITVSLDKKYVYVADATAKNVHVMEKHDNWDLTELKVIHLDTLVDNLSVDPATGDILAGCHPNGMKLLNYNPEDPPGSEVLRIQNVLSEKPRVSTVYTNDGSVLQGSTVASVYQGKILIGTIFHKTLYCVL
T3 sequence (Q9BGN0 2-354 limits assumed): as above

Compound	PON3 (rate of hydrolysis of substrate) (rabbit serum PON3)	PON1/PON3 Ratio (rabbit serum PON3)	PON1 (rate of hydrolysis of substrate) (rabbit serum PON1) [µmol/min/mg]	PON3 hydrolytic activity with substrate (in words) (rabbit serum PON3)	hydrolysis of lactone drug by PON3 (in words) (PON3)
CCCCC1CCCC(=O)O1 (stereo not drawn) [δ-Nonalactone]	44 µmol/min/mg	3.4	142	–	–
O=C1Cc2ccccc2O1 [2-Coumaronone]	32.4 µmol/min/mg	4.0	136.6	–	–
CC1CCCC(=O)O1 (stereo not drawn) [δ-Hexalactone]	3.6 µmol/min/mg	58	207	–	–
CCCCCCC1CCC(=O)O1 (stereo not drawn) [γ-Decalactone]	50.2 µmol/min/mg	1.8	92	–	–
O=C1Oc2ccccc2C1Br (stereo not drawn) [α-Br-2-Coumaronone]	2.8 µmol/min/mg	97	270.1	–	–
CC1=CCC(=O)O1 [α-Angelica lactone]	3.4 µmol/min/mg	52	175.1	–	–
CCCCC1OC(=O)CC1C (stereo not drawn) [β-methyl-γ-octalactone]	3 µmol/min/mg	12	34.8	–	–
CCCCCCCC1CCCC(=O)O1 (stereo not drawn) [δ-Dodecalactone]	98.2 µmol/min/mg	1.8	179.4	–	–
δ-Undecalactone	90 µmol/min/mg	2.1	186.8	–	–
CC(=O)Oc1ccc2ccccc2c1 [β-Naphtyl Acetate]	4.6 µmol/min/mg	30	138.8	–	–
CCCCC1CCC(=O)O1 (stereo not drawn) [γ-Octalactone]	29 µmol/min/mg	3.6	104.5	–	–
CCCC1CCC(=O)O1 (stereo not drawn) [γ-Heptalactone]	8.6 µmol/min/mg	12	107	–	–
CC1CCC(=O)O1 (stereo not drawn) [γ-Valerolactone]	3.0 µmol/min/mg	26	78.4	–	–
CCOP(=O)(OCC)Oc1ccc([N+](=O)[O-])cc1 [Paraoxon]	<0.0075^1 μmol/min/mg	638	4.76	very poor substrates	–
CCCCCCCC1CCC(=O)O1 (stereo not drawn) [γ-Undecalactone]	44.2 µmol/min/mg	2	87.4	–	–
O=C1CCC(c2ccccc2)O1 (stereo not drawn) [γ-phenyl-γ-butyrolactone]	20.4 µmol/min/mg	10	203	–	–
CC(=O)Oc1ccccc1 [Phenyl Acetate]	1.0 µmol/min/mg	769	768.7	very poor substrates	–
C=C1CCC(=O)O1 [γ-methylene-γ-butyrolactone]	12 µmol/min/mg	52	622	–	–
CCCCCC1CCCC(=O)O1 (stereo not drawn) [δ-Decalactone]	73 µmol/min/mg	1.8	134.8	–	–
CC[C@H](C)C(=O)O[C@H]1C[C@@H](C)C=C2C=C[C@H](C)[C@H](CC[C@@H]3C[C@@H](O)CC(=O)O3)[C@H]21 [lovastatin]	–	–	–	–	can also hydrolyse
CCCCCC1CCC(=O)O1 (stereo not drawn) [γ-Nonalactone]	60 µmol/min/mg	1.3	79.6	–	–
